Patent US12269801B2, “Modified amino acids” (SUTRO BIOPHARMA, INC., priority 2012, dated 2025)

How the values were obtained:
Y50TAG site in GFP = assay: Cell-free (OCFS) incorporation into GFP at amber codon, fluorescence time course; assay type: biochemical
Source text: This example describes incorporation of compound (30) into green fluorescent protein. To monitor synthesis of GFP, the DNA encoding turboGFP containing an amber codon (stop codon) before the chromophore was cloned into OCFS expression vector pYD317. The stop codon (TAG) was inserted by overlapping PCR mutagenesis at the nucleotides corresponding to the amino acid tyrosine at the 50th amino acid according to the crystal structure of turboGFP (pdb 2G6X).
[…] OCFS reaction mix was immediately added to microplate for a 30 μL final reaction volume containing 30% S30 extract, 24 μg/mL T7 RNA polymerase, 1 mM L-tyrosine (Sigma, T8566), pre-mix*, 10 μM tRNA, 5 μM pCNFRS D286R, 1 mM compound (30), and 3 nM turboGFP plasmid (Evrogen, Russia, subcloned into a PYD317 vector) in DEPC-treated water (G Biosciences, 786-109). A positive control reaction using turboGFP without the stop codon was used to ensure that the reactions proceeded with rates similar previously observed, while reactions containing turboGFP Y50TAG were also run without tRNA to ensure no fluorescence was detected (negative control) in the absence of the system responsible for incorporation of pAMF. Incorporation of pAMF into GFP achieves relatively high yields of protein in a site-specific manner.

trastuzumab heavy chain = assay: Cell-free incorporation into IgG at heavy chain amber codon, autoradiography; assay type: biochemical; details: 1 mM compound (30), TAG at serine position 136 (EU index)
Description: TAG codon was inserted by overlapping PCR mutagenesis at the nucleotides corresponding to the amino acid serine at the position 136 by EU index in CHI domain.
(§1) Cell-free extracts were thawed to room temperature and incubated with 50 μM iodoacetamide for 30 min. Cell-free reactions were run at 30 C for up to 10 h containing 30% (v/v) iodoacetamide-treated extract with 8 mM magnesium glutamate, 10 mM ammonium glutamate, 130 mM potassium glutamate, 35 mM sodium pyruvate, 1.2 mM AMP, 0.86 mM each of GMP, UMP, and CMP, 2 mM amino acids for all 18 amino acids except tyrosine and phenylalanine which were added at 0.5 mM, 4 mM sodium oxalate, 1 mM putrescine, 1.5 mM spermidine, 15 mM potassium phosphate, 100 nM T7 RNAP, 1.3 μM E. coli DsbC, 5 μM yeast PDI, 2 mM oxidized (GSSG) glutathione, 15 μM tRNA, 1 μM tRNA synthetase, and 1 mM compound (30). The concentrations of heavy chain TAG variant plasmid and wild type light chain plasmid were 7.5 μg/mL and 2.5 μg/mL respectively. […]
For non reducing gel, 4 μL of sample, 8 μL of DI H2O and 4 μL of 4×LDS buffer (Invitrogen, Carlsbad, CA) were mixed before being loaded on gel. […] Samples were analyzed by 4˜12% Bis-Tris SDS-PAGE gels (Invitrogen, Carlsbad, CA) according to the manufacturer's recommendations. Gels were dried and analyzed by autoradiography using a Storm 840 PhosphoImager after about 16 hours exposure.

human GMCSF = assay: Cell-free incorporation into GM-CSF at amber codon, autoradiography; assay type: biochemical; details: 1 mM compound (30), TAG at serine position 6
Description: DNA encoding human GMCSF with amber codon was cloned into expression vector pYD317. The TAG codon was inserted by overlapping PCR mutagenesis at the nucleotides corresponding to the amino acid serine at the position 6.
as §1, with “extracts containing tRNA CUA” for “extracts”, “DsbC,” for “DsbC, 5 μM yeast PDI,”, “glutathione,” for “glutathione, 15 μM tRNA,”, “GMCSF” for “heavy chain”, “was 5 μg/mL.” for “and wild type light chain plasmid were 7.5 μg/mL and 2.5 μg/mL respectively.”
For reducing gel, 4 μL of sample, 1 μL of 1 M DTT, 7 μL of DI H2O and 4 μL of 4×LDS buffer (Invitrogen, Carlsbad, CA) were mixed and heated in hot blot at 70 C for 5 minutes. Samples were analyzed by 4˜12% Bis-Tris SDS-PAGE gels (Invitrogen, Carlsbad, CA) according to the manufacturer's recommendations. Gels were dried and analyzed by autoradiography using a Storm 840 PhosphoImager after about 16 hours exposure.

[1] = Reactivity of amino acid analogs with DBCO-NH2 (61), absorption at 310 nm; assay type: physicochemical; details: 1:1 equivalence; for yield of reaction with compound (61): in six hours; for reaction rate with compound (61): pH 7.4 phosphate buffered saline, compared among analogs
Description: DBCO-NH2 (61) was dissolved in pH 7.4 phosphate buffered saline to yield a 500 µM solution. Amino acid analogs (30), (1), and (2) were dissolved in the same buffer to yield 5 mM clear solutions, and then diluted to a concentration of 500 μM using the same buffer. One hundred microliters of each amino acid analog was mixed with 100 μL of compound (61) and vortexed. The absorption of compound (61) was monitored at 310 nm using a NANODROP 1000 UV Spectrometer. Measurements were obtained at 0, 0.5, 2, 6, and 20 hours. The reduction in the absorption of compound (61) is indicative of its reaction with the amino acid analogs.

[2] = Reactivity of azido amino acids with DBCO analog (60), loss of DBCO absorbance at 310 nm; assay type: physicochemical; details: reaction with compound (60); for second-order rate constant: PBS buffer, 25° C., from plot of kobs vs. [Azide]; for rate constant fold higher than compound (50): relative to compound (50)
Description: DBCO analog (60), was dissolved in acetonitrile to a concentration of 60 μM. Amino acid analogs (30), (40), and (50) were serially diluted in PBS buffer in the wells of a 96-well microtiter plate to a volume of 180 μL. 20 μL of DBCO analog stock solution was added to each well and the kinetics of the loss of DBCO to form the addition adduct was monitored at 310 nm by absorbance using a SpectraMax plate reader at 25° C. A schematic of the reaction of compounds (30), (40), and (50) with compound (60) is shown as FIG. 1. The kinetics accurately fit a first order decay with […], where kobs is the pseudo first order rate constant with units of sec^−1 under conditions where [Azide compound]>>[DBCO]. A plot of kobs vs. [Azide] yields the second-order rate constant (units of M^−1 sec^−1) for each amino acid, a measure of the intrinsic chemical reactivity of each amino acid.

Row | SMILES | yield of reaction with compound (61) [1] | reaction rate with compound (61) [1] | second-order rate constant [2] [M⁻¹ s⁻¹] | rate constant fold higher than compound (50) [2] | other results
1 | [N-]=[N+]=NCc1ccc(C[C@H](N)C(=O)O)cc1 [compound (30)] | almost quantitative yield | comparable rates | 1.4 | approximately 7 fold | RFU (Y50TAG site in GFP; at 200 minutes): approximately 130,000 RFU; RFU (Y50TAG site in GFP; at 400 minutes): approximately 160,000 RFU; RFU (Y50TAG site in GFP; at 600 minutes): approximately 170,000 RFU; incorporation into IgG by autoradiography (trastuzumab heavy chain): intact full length IgG containing compound (30) was made; incorporation into GMCSF by autoradiography (human GMCSF): intact full length GMCSF containing compound (30) was made
2 | [N-]=[N+]=NCc1ccc(CC(N)C(=O)O)nc1 (stereo not drawn) [compound (1), 2-Amino-3-(5-azidomethyl-pyridin-2-yl)-propionic Acid] | almost quantitative yield | comparable rates |  |  | 
3 | [N-]=[N+]=NCc1ccc(C[C@H](N)C(=O)O)cn1 [compound (2)] |  | two- to four-fold slower |  |  | 
4 | [N-]=[N+]=NCCCC(=O)NCCCC[C@H](N)C(=O)O [compound (40)] |  |  | 1.4 | approximately 7 fold | 
5 | [N-]=[N+]=Nc1ccc(C[C@H](N)C(=O)O)cc1 [compound (50), p-azido-phenylalanine, reference compound] |  |  | 0.2 |  | 
